Experimental data as given in article PMC13288994, “Identification and characterization of novel chikungunya virus polymerase inhibitors” (Journal of Virology, 2026).
Read-outs that look alike come from different tables or passages of the source.

How the values were obtained:
SARS-CoV-2-nLuc = experiment: microbe, parasite or virus in culture; format: cell-based; settings: Severe acute respiratory syndrome coronavirus 2; VeroE6-TMPRSS2 cells; read-out: Antiviral potency (EC50 [µM]) SARS-CoV-2
VEEV-TC83-nLuc = experiment: microbe, parasite or virus in culture; format: cell-based; settings: Venezuelan equine encephalitis virus, Vero C1008, read-out: Antiviral potency (EC50 [µM]) VEEV
CHIKV replicon = experiment: microbe, parasite or virus in culture; settings: Chikungunya virus, U2OS, read-out: Antiviral potency (EC50 [µM]) CHKV replicon
VSV-nLuc = experiment: microbe, parasite or virus in culture; format: cell-based; settings: Vesicular stomatitis virus, Vero C1008, read-out: Antiviral potency (EC50 [µM]) VSV
RSV A2-L19F = experiment: microbe, parasite or virus in culture; format: cell-based; settings: human respiratory syncytial virus; Hep-2 cells; read-out: Antiviral potency (EC50 [µM]) RSV
in vitro [1] = settings: African green monkey
HPIV3-nLuc = experiment: microbe, parasite or virus in culture; format: cell-based; settings: Human respirovirus 3, Vero C1008; VeroE6 cells; read-out: Antiviral potency (EC50 [µM]) HPIV3
in vitro [2] = settings: human
SINV-GLuc = experiment: microbe, parasite or virus in culture; format: cell-based; settings: Sindbis virus, Vero C1008; VeroE6 cells; read-out: Antiviral potency (EC50 [µM]) SINV
[3] = tested on: CHIKV-nLuc (181/25 strain); experiment: microbe, parasite or virus in culture; format: cell-based, Chikungunya virus; settings: Chikungunya virus, 384-well format, read 20 h after infection, read-out: Normalized percent inhibition in primary screen
[4] = target: T1, RRV trans-replicase (P1234) (Ross river virus, UniProt P13887); experiment: Trans-replicase assay, RRV; format: cell-based; settings: 100 µM, U-2 OS, 20 h
T1 construct: expression of the P1234 polyprotein drives replication of a reporter RNA template; expressed in transfected cells; host or cells: U-2 OS
Description: (§1) U-2 OS cells were seeded at 75,000 cells per well in 24-well plates and cultured for 24 h. Cells were then co-transfected with 250 ng of plasmid encoding template RNA and 250 ng of plasmid encoding P1234 WT ([72], [73]), using Lipofectamine LTX with PLUS reagent (ThermoFisher Scientific) following the manufacturer’s instructions. After 4 h of post-transfection, medium containing 100 µM of compounds or DMSO was added to the cells. Cells were then incubated for 20 h, lysed, and GLuc activity was quantified using the Dual-Luciferase Reporter Assay System (Promega). Luciferase activities were normalized to those of the DMSO-treated controls.

[5] = Cytotoxicity assay (PrestoBlue, 24 h) in U-2 OS cells; format: cell-based, Human; settings: human, U-2 OS cells
CHIKV-nLuc [6] = experiment: microbe, parasite or virus in culture; format: cell-based, Chikungunya virus
CHIKV 181/25 = experiment: Virus yield dose-response in U-2 OS cells, CHIKV; format: cell-based, Chikungunya virus; settings: Chikungunya virus, U2OS
CHIKV-nLuc [7] = format: cell-based, Chikungunya virus; settings: 20 µM, U-2 OS, reporter read at 24 h
ONNV = experiment: organism not typed; format: cell-based, o'nyong-nyong virus; settings: U2OS, read-out: EC50 virus production, ONNV
[8] = target: T2, BFV trans-replicase (P1234) (Barmah forest virus, UniProt P87515); experiment: Trans-replicase assay, BFV; format: cell-based; settings: 100 µM, U-2 OS, 20 h
T2 construct: expression of the P1234 polyprotein drives replication of a reporter RNA template; expressed in transfected cells; host or cells: U-2 OS
Description: as §1

[9] = target: T3, MAYV trans-replicase (P1234) (Mayaro virus, UniProt Q8QZ73); experiment: Trans-replicase assay, MAYV; format: cell-based; settings: 100 µM, U-2 OS, 20 h
T3 construct: expression of the P1234 polyprotein drives replication of a reporter RNA template; expressed in transfected cells; host or cells: U-2 OS
Description: as §1

[10] = target: T4, SFV trans-replicase (P1234) (Semliki forest virus, UniProt P08411); experiment: Trans-replicase assay, SFV; format: cell-based; settings: 100 µM, U-2 OS, 20 h
T4 construct: expression of the P1234 polyprotein drives replication of a reporter RNA template; expressed in transfected cells; host or cells: U-2 OS
Description: as §1

[11] = target: VEEV trans-replicase (P1234) (Venezuelan equine encephalitis virus, UniProt P36328); format: cell-based
MAYV = experiment: microbe, parasite or virus in culture; format: cell-based, Mayaro virus; settings: Mayaro virus, U2OS, read-out: EC50 virus production, MAYV
[12] = target: T5, ONNV trans-replicase (P1234) (O'nyong-nyong virus, UniProt P13886); experiment: Trans-replicase assay, ONNV; format: cell-based; settings: 100 µM, U-2 OS, 20 h
T5 construct: expression of the P1234 polyprotein drives replication of a reporter RNA template; expressed in transfected cells; host or cells: U-2 OS
Description: as §1

CHIKV = experiment: Selection for viral resistance by serial passage in U-2 OS cells, whole-genome sequencing; format: cell-based, Chikungunya virus; settings: passage 1, MOI 1 FFU/cell, 16 h
[13] = target: EEEV trans-replicase (P1234) (Eastern equine encephalitis virus, UniProt Q306W6); format: cell-based
CHIKV-nLuc [14] = experiment: microbe, parasite or virus in culture; format: cell-based, Chikungunya virus; settings: Chikungunya virus, U2OS; MOI 0.1 FFU/cell, 24 hpi, in-house synthesized compound; read-out: EC50 CHIKV-nLuc, U-2 OS
RRV = experiment: microbe, parasite or virus in culture; format: cell-based, Ross River virus; settings: Ross River virus, U2OS, read-out: EC50 virus production, RRV
[15] = target: T6, CHIKV trans-replicase (P1234) (Chikungunya virus, UniProt Q8JUX6); experiment: Trans-replicase assay, CHIKV; format: cell-based; settings: 100 µM, U-2 OS, 20 h
T6 construct: expression of the P1234 polyprotein drives replication of a reporter RNA template; expressed in transfected cells; host or cells: U-2 OS
Description: as §1

[16] = target: T7, SINV trans-replicase (P1234) (Sindbis virus, UniProt P03317); experiment: Trans-replicase assay, SINV; format: cell-based; settings: 100 µM, U-2 OS, 20 h
T7 construct: expression of the P1234 polyprotein drives replication of a reporter RNA template; expressed in transfected cells; host or cells: U-2 OS
Description: as §1

SFV = experiment: microbe, parasite or virus in culture; format: cell-based, Semliki Forest virus; settings: Semliki Forest virus, U2OS, read-out: EC50 virus production, SFV
[17] = Cytotoxicity assay (PrestoBlue, 24 h) in NHDF cells; format: cell-based, Human; settings: human, NHDF cells
Description: NHDF cells were seeded at 10,000 cells per well in 24-well plates and cultured for 24 h. Cells were then treated with threefold serial dilutions of compounds starting at 500 µM and incubated for 24 h. DMSO was included as a negative control for normalization. Following treatment, cells were incubated with PrestoBlue reagent (ThermoFisher Scientific) for 1 h at 37°C, and fluorescence was measured using a PerkinElmer Victor X5 multilabel plate reader. The CC50 values were determined by normalized non-linear regression with a variable slope model in Prism (GraphPad).

SINV = experiment: microbe, parasite or virus in culture; format: cell-based, Sindbis virus; settings: Sindbis virus, U2OS, read-out: EC50 virus production, SINV

T1 sequence (P13887 1-2479 limits assumed): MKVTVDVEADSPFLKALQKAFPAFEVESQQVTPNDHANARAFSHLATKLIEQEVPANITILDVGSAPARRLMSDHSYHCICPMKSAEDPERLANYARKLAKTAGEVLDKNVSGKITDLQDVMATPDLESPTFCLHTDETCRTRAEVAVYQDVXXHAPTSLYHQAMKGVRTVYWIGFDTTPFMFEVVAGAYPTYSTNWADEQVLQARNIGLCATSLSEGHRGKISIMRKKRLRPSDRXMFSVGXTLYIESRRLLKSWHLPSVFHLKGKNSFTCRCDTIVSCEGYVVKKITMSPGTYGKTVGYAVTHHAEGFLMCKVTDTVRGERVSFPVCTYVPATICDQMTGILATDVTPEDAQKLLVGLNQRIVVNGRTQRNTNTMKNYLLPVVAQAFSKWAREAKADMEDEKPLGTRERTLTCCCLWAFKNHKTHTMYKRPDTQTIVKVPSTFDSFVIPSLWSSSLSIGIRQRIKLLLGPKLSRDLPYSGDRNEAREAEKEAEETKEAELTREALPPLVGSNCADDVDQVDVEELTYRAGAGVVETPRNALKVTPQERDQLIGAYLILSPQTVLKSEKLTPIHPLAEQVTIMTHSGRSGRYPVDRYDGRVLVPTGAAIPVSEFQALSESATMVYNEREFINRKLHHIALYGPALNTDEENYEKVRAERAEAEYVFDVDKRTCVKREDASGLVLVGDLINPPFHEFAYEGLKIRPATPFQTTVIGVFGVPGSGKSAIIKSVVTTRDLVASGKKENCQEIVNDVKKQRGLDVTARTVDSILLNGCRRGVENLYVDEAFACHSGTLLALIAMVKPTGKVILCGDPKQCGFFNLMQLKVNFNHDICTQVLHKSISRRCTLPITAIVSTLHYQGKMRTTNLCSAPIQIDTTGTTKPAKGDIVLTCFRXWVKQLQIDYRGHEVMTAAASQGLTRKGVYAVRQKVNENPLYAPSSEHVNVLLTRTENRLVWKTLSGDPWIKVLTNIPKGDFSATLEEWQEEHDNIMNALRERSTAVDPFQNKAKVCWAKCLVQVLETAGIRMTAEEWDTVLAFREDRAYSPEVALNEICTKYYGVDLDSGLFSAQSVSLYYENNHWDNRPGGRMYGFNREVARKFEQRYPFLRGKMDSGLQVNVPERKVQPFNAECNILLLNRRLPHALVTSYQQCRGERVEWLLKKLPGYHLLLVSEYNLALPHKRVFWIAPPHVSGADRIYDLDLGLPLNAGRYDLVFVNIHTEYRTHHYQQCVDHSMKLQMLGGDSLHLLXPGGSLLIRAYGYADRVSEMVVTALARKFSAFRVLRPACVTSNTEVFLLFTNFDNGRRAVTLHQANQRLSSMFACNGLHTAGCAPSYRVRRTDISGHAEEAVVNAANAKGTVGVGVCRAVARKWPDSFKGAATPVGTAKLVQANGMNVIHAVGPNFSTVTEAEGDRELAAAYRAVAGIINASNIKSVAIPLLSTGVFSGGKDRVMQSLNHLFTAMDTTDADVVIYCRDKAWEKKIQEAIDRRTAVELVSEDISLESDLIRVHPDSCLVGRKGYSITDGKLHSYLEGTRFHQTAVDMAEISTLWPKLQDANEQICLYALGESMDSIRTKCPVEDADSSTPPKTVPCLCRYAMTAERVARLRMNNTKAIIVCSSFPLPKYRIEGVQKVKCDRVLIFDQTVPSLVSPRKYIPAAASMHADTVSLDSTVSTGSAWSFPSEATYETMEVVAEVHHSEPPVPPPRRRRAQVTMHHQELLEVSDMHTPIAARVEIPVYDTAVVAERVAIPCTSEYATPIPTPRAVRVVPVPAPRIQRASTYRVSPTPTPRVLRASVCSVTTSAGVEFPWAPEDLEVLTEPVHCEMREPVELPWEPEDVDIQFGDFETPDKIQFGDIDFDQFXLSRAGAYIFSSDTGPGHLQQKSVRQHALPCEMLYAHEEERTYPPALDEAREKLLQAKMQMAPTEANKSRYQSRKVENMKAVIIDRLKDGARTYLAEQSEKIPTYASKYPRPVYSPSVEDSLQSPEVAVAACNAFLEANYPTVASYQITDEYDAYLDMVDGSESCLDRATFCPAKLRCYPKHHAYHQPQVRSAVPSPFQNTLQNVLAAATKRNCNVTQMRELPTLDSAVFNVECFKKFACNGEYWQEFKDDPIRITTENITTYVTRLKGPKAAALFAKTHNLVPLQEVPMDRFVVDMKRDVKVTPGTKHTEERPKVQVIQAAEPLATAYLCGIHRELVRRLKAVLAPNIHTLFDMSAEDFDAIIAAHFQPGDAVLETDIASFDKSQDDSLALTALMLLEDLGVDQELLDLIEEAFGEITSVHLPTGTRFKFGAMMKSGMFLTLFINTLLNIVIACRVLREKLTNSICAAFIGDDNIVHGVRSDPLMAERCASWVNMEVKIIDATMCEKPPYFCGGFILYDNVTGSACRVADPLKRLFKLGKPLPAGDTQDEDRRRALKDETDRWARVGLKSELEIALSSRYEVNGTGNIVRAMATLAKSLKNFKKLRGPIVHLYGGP
T1 sequence (P13887 1-533 partner limits assumed): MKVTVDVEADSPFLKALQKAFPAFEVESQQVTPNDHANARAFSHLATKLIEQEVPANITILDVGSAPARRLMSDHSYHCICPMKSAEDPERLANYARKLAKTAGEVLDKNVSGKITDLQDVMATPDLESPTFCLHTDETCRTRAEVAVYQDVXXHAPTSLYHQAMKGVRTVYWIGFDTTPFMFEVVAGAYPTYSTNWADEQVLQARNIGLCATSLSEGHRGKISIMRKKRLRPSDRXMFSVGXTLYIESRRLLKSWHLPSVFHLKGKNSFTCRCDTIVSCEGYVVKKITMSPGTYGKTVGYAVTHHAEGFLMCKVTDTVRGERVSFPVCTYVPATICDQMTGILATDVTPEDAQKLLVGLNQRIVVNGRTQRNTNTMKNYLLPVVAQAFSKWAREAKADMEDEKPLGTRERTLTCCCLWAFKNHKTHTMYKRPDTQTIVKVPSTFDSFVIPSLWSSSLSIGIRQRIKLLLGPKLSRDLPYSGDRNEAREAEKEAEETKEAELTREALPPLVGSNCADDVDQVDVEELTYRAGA
T1 sequence (P13887 534-1331 partner limits assumed): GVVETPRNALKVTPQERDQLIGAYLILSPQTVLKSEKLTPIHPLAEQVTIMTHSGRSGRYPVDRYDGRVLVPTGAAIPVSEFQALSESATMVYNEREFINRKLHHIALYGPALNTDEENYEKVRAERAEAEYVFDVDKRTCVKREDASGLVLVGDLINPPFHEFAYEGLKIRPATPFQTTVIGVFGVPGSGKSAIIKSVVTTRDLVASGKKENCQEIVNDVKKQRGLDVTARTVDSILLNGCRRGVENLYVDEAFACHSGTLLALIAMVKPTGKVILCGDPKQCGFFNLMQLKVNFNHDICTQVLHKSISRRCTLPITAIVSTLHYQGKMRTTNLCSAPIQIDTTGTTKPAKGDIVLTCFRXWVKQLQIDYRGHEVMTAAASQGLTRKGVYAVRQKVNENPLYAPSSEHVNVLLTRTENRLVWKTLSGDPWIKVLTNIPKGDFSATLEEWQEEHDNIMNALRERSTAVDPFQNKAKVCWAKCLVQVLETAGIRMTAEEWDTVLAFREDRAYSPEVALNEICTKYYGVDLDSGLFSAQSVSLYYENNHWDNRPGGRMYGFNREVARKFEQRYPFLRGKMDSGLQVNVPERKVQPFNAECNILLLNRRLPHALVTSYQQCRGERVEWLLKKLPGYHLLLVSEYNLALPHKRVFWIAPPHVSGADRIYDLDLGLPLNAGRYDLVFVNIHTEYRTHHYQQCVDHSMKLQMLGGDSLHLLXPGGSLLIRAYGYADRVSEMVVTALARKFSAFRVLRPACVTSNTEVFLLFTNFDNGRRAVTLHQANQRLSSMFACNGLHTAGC

CCNc1cc(C)nc(N2CCN(C(=O)c3cccc4ccccc34)CC2)n1 [GAP-1066658]
EC50 (SARS-CoV-2-nLuc): ~100 µM
EC50 (VEEV-TC83-nLuc): 75.8 µM
EC50 (CHIKV replicon): 0.61 µM
EC50 (VSV-nLuc): 60.9 µM
EC50 (RSV A2-L19F): > 100 µM
CC50 (in vitro [1]): 88.5 µM
EC50 (HPIV3-nLuc): ~100 µM
CC50 (in vitro [2]): 61.5 µM
EC50 (SINV-GLuc): > 100 µM
inhibition at 5 µM [3]: 95.4%

Cn1nc(CN(C(=O)c2ccc(F)cc2)c2ccccc2)c2c1CCN(S(=O)(=O)Cc1ccccc1F)C2 [GAP-1081237]
EC50 (SARS-CoV-2-nLuc): > 100 µM
EC50 (VEEV-TC83-nLuc): 10 µM
EC50 (CHIKV replicon): 12.4 µM
EC50 (VSV-nLuc): 65.2 µM
EC50 (RSV A2-L19F): > 10 µM
CC50 (in vitro [1]): > 100 µM
EC50 (HPIV3-nLuc): 64.9 µM
CC50 (in vitro [2]): > 100 µM
EC50 (SINV-GLuc): 65.7 µM
inhibition at 5 µM [3]: 80.2%

O=C(CN1C(=O)CNC1=O)NCc1n[nH]c2c1CCCCC2 [GAP-1173149, 2-(2,5-dioxoimidazolidin-1-yl)-N-(1,4,5,6,7,8-hexahydrocyclohepta[d]pyrazol-3-ylmethyl)acetamide]
Effect on RNA replication (GLuc) in trans-replicase assay, RRV [4]: suppressed replication
EC50 (SARS-CoV-2-nLuc): > 100 µM
EC50 (VEEV-TC83-nLuc): 52.3 µM
CC50 at 24 h [5]: > 500 µM
EC50 (CHIKV-nLuc [6]; Chikungunya virus, NHDF, MOI 0.1 FFU/cell, 24 hpi, in-house synthesized compound): 11.6 µM
selectivity index (SI = CC50/EC50) (CHIKV-nLuc [6]; NHDF cells): > 43
EC50 (CHIKV replicon): 5.3 µM
EC50 (CHIKV 181/25; MOI 0.1, supernatant 24 hpi titered by FFA (Fig. 5), read-out: EC50 virus production, CHIKV): 10.2 ± 0.95 µM
EC50 (CHIKV 181/25; resistance study (Fig. 7), read-out: EC50 virus production, CHIKV WT): 9.15 ± 1.62 µM
Time-of-addition profile (stage of replication targeted) (CHIKV-nLuc [7]): act on a stage after viral entry
EC50 (ONNV): 5.22 ± 1.11 µM
EC50 (VSV-nLuc): > 100 µM
EC50 (RSV A2-L19F): > 10 µM
Effect on RNA replication (GLuc) in trans-replicase assay, BFV [8]: effectively inhibited
Effect on RNA replication (GLuc) in trans-replicase assay, MAYV [9]: no significant effect
Effect on RNA replication (GLuc) in trans-replicase assay, SFV [10]: no significant effect
CC50 (in vitro [1]): > 100 µM
EC50 (HPIV3-nLuc): > 100 µM
Effect on RNA replication (GLuc) in trans-replicase assay, VEEV [11]: did not show significant VEEV inhibition
EC50 (MAYV): > 100 µM
CC50 (in vitro [2]): > 100 µM
Effect on RNA replication (GLuc) in trans-replicase assay, ONNV [12]: suppressed replication
Reduction of virus titers at P1 compared with DMSO-treated controls (CHIKV): 1 log
Effect on RNA replication (GLuc) in trans-replicase assay, EEEV [13]: effectively inhibited
EC50 (CHIKV-nLuc [14]): 13.6 ± 0.16 µM
EC50 (RRV): 10 ± 0.64 µM
EC50 (SINV-GLuc): > 100 µM
Effect on RNA replication (GLuc) in trans-replicase assay, CHIKV [15]: suppressed replication
Effect on RNA replication (GLuc) in trans-replicase assay, SINV [16]: no significant effect
EC50 (SFV): > 100 µM
CC50 at 24 h [17]: > 500 µM
inhibition at 5 µM [3]: 88.7%
EC50 (SINV): > 100 µM

CCNc1nc(C)cc(N2CCN(C(=O)c3cc(Cl)ccc3OC)CC2)n1 [GAP-1350926]
inhibition at 5 µM [3]: 82.1%

CCNc1nc(C)cc(N2CCN(C(=O)c3ccccc3Br)CC2)n1 [GAP-1354666]
inhibition at 5 µM [3]: 82.5%

CCNc1nc(C)cc(N2CCN(C(=O)c3ccccc3Cl)CC2)n1 [GAP-1358555]
inhibition at 5 µM [3]: 85.8%

CCNc1nc(C)cc(N2CCN(C(=O)c3ccc(F)cc3Cl)CC2)n1 [GAP-1358964]
inhibition at 5 µM [3]: 91.6%
